Laboratory results published in patent publication US20220313658A1, “YAP Inhibition for Wound Healing” (The Board of Trustees of the Leland Stanford Junior …, priority 2019, published 2022).

System: dorsal excisional wounds
Assay: Dorsal excisional wounding, wound base injected with Verteporfin: gross, histology, immunofluorescence
Format: in vivo, mouse
Excerpt: P60 En-1^Cre;R26^mTmG, En-1^Cre;Ai6, and En-1^Cre-ERT;Ai6 mice were used for cutaneous wound healing experiments in accordance with well-established protocols. Briefly, mice were anesthetized (2% isofiuorane), their dorsal hair was removed with depilatory cream, and the dorsal skin was prepped with alcohol wipes. Next, two 6 mm full-thickness circular wounds were placed through the panniculus carnosus on the dorsum of each animal at the same level, roughly 6 mm below the ears and 4 mm lateral to the midline. The wounds were then stented open by 12 mm diameter silicone rings secured around the wound perimeter with glue and 8 simple interrupted Ethilon 6-0 sutures (Ethicon). For mice receiving mechanotransduction inhibitor, 30 μL of Verteporfin (1 mg/mL) was injected locally into the wound base; PBS was injected into wounds for vehicle controls. Post-operative analgesia was accomplished with buprenorphine 0.05 mg/kg every four hours for three doses, and then as indicated. Dressings were changed every other day under anesthesia. All wounds were fully re-epithelialized by post-operative day (POD) 14, at which time the wound and surrounding skin (used as unwounded control) were harvested and processed for histology. Induction of En-1^Cre-ERT;Ai6 mice was achieved by 5 consecutive days of intraperitoneal tamoxifen injections (90% corn oil/ethanol v/v; 200 mg/kg body weight) prior to wounding. In all experiments, a minimum of 3 mice with 2 wounds each was used for each treatment group.
Tissues were fixed in 2% paraformaldehyde for 16 h at 4° C. Samples were prepared for embedding by soaking in 30% sucrose in PBS for 1 week at 4° C. Samples were then removed from the sucrose solution, and tissue blocks were prepared by embedding in Tissue Tek U.C.T. (Sakura Finetek) under dry ice to achieve rapid freezing. Frozen blocks were mounted on a Thermo Scientific CryoStar NX70 cryostat, and 10 μm-thick sections were transferred to SuperfrostfPlus adhesive slides (Fisher). For hematoxylin and eosin staining, standard protocols were used with no modifications. For immunofluorescent staining, slides were blocked for 1 hr with Power Block (Biogenex) prior to addition of the following primary antibodies: Abeam ab34710 (anti-collagen type I), Abeam ab28340 (anti-CD26), Invitrogen MA5-15915 (anti-Dlk1), Abeam ab51317 (anti-Scat), Abeam ab5694 (anti-α-SMA), Santa Cruz Biotechnology sc-101199 (anti-YAP), Abeam ab7800 (anti-CK14), and Abeam ab52625 (anti-CK19). Slides were then incubated for 1 h with Alexa Fluor 568 or Alexa Fluor 647-conjugated anti-rabbit, anti-rat, or anti-mouse antibodies (Invitrogen). Finally, slides were mounted in Fluoromount-G mounting solution with DAPI (Thermo Fisher). Brightfield images were acquired with a Leica DMI4000B microscope, while fluorescent images were acquired with a Leica DM6000 SP5 upright confocal microscope.
Given that En-1 activation was associated with adoption of a pro-fibrotic phenotype, and that YAP inhibition prevented En-1 activation in vitro, whether YAP inhibition could also block En-1 activation in vivo to reduce scarring in a mouse wounding model was assessed. Adult En-1^Cre;R26^mTmG mice were wounded, and the POD 0 wounds were treated by injecting the wound base with either PBS (control) or Verteporfin (1 mg/mL). […] Wounds were harvested for gross and histological examination at POD 14, 30, or 90. As expected, control wounds healed in a typical scarring fashion (FIG. 4, A middle row). Even after 90 days, the wound site remained bare, forming a distinct region of pale scar tissue in which no hair regrowth occurred (FIG. 4, A middle row, right image). […] This was a striking result, as a hallmark of adult mammalian (scarring) wound healing is a complete lack of regeneration of secondary appendages (e.g., hair follicles, sweat glands), as exemplified by the bare area that remained following control wound healing. […]

[1] = 30 days, relative to control wounds
[2] = four treatments (POD 0, 4, 8 and 12)

verteporfin
Fibronectin staining (14 days, vs control wounds): comparatively stronger staining for fibronectin
col-I staining (14 days, vs control wounds): substantially reduced col-I staining
Distribution of Dlk1+ cells (30 days): present throughout the dermis
CD26 staining [1]: decreased staining for CD26
Number of EPFs in wounds [1]: significantly fewer EPFs
Chains of YAP+ cells (30 days, vs control wounds): markedly shorter
IF staining of appendages for cytokeratins 14 and 19 (hair follicle and sweat gland markers) (POD 90): positive IF staining
Oil Red O lipid staining (sebaceous glands) (POD 90): positive lipid staining
Regrowth of dermal appendages (POD 90 (FIG. 4, C)): regrowth of hair follicles and other dermal appendages
Fibroblast lineage content of wounds (ENFs vs EPFs) (after 14 days): almost exclusively ENFs
H&E histology: dermal appendage structures (by 1 and 3 months): numerous structures morphologically resembling hair follicles or sweat glands
H&E histology: fibrosis and cellularity (by 2 weeks): reduced fibrosis and increased cellularity
Hair regrowth [2]: grossly reduced
Wound closure [2]: delayed
Hair growth within healed wound (single dose POD 0, by 30 days): substantial hair growth within the healed wound
Gross appearance of healed wound (single dose POD 0, by 90 days): grossly indistinguishable from unwounded skin
Wound closure rate (single injection 1 mg/mL into wound base at POD 0, vs PBS): did not significantly affect wound closure rate
Number of EPFs in wounds (three months of healing): dramatically reduced numbers of EPFs
YAP+ cells (three months of healing): rare YAP^+ cells
α-SMA+ cells (three months of healing): virtually no α-SMA^+ cells
Wound closure rates, gross appearance and ECM features (two doses (POD 0 and 4)): comparable to those of wounds treated with single Verteporfin dose
